Source: patent publication US12037355B2, “Triterpene saponin analogues” (priority 2015, dated 2024)

Experiments:
[1] = test system: hemolysis; assay: Hemolytic assay; type: cell-based
Protocol: (§1) Natural and synthetic QS-21 (SQS-21 or SAPONEX®) and a variety of analogs were tested for hemolytic activity.

[2] = Companion toxicity study, body mass three days after immunization
Protocol: as §1

[3] = Weight loss in Engerix-B / TiterQuil-1055 study; settings: mice
[4] = test system: pertussis toxin; assay: Adacel (Tdap vaccine) immunogenicity in mice, anti-PT antibody in serum; type: in vivo; settings: for Antibody levels augmented compared to immunization with Adacel alone: adjuvant with Adacel
[5] = Pilot pharmacology/toxicology study with Adacel, QS-21 and TiterQuil-1055; settings: for changes in blood chemistry or hematology results: SC days 1 and 15, bled day 22 (group 7 day 29); for weight loss (body weight): mice, 50 mcg TiterQuil-1055, 20 mcg QS-21; for liver histopathology (hepatocellular cytoplasmic vacuolization): sacrificed day 22, 33 tissues examined
[6] = Stability at 37° C.; type: physicochemical; settings: for degradation: after two weeks at 37° C.
Protocol: as §1

[7] = cited from earlier work
[8] = groups of 5 mice, 2 weeks after second SC immunization
[9] = groups of 5 mice, 50 mcg TiterQuil-1055, 20 mcg QS-21, Adacel 2.5 mcg pertussis toxin
[10] = 50 mcg TiterQuil-1055, 20 mcg QS-21, Adacel 2.5 mcg pertussis toxin

For CC1O[C@@H](OC2C(O)[C@@H](NC(=O)CCCCCCCCCCC(=O)O)C(CO)O[C@H]2OC(=O)[C@]23CCC(C)(C)CC2C2=CCC4C5(C)CC[C@H](O)C(C)(C=O)C5CC[C@]4(C)C2(C)CC3O)C(O)C(O)[C@H]1O[C@@H]1OC[C@@H](O)C(O)C1O (stereo partly drawn) [Compound I-4], the hemolytic activity [1] was “much lower or undetectable hemolytic activity”, the “body mass gained on average” value ([2]; young mice) was 5% and the weight loss ([3]; 30 mcg TiterQuil-1055 dose) was “No weight loss”. The weight loss ([3]; 100 mcg TiterQuil-1055 dose) was 4%, the weight loss ([3]; 300 mcg TiterQuil-1055 dose) was 5% and the Antibody levels ([4]; 0.5 mcg dose of Adacel, alone or with TiterQuil-1055, groups of 5 mice, 2 weeks after second SC immunization) was 52,344. For the same molecule, the “Antibody levels 2 weeks later” value ([4]; TiterQuil-1055 with Adacel, 2 weeks after the 2-week post-second-immunization bleed) was “further increased”, the “Antibody levels augmented compared to immunization with Adacel alone” value [4, 8] was 70 fold and the “changes in blood chemistry or hematology results” value [5, 9] was “No changes”. For the same molecule, the weight loss ([5]; groups of 5 mice, SC days 1 and 15, weighed daily, 50 mcg TiterQuil-1055, 20 mcg QS-21, Adacel 2.5 mcg pertussis toxin) was “no other mice”, the “weight loss (body weight)” value [5] was “No weight loss” and the “liver histopathology (hepatocellular cytoplasmic vacuolization)” value [5, 10] was “No changes at all”. The “stability relative to QS-21” value [6] was “increased stability” and the degradation [6] was “without detectable degradation”.

In the case of QS-21 [reference compound], the hemolytic activity [1] is given as “highly hemolytically active”, the “body mass lost on average” value ([2]; 20 mcg QS-21) is given as 8-10% and the “tolerated (maximum) dose in cancer patients” value ([7]; cancer patients, above this dose local and systemic side effects) is given as 100 to 150 µg. For the same molecule, the “maximum dose for healthy patients” value ([7]; healthy patients) was roughly 50 µg, the “highest practical tolerable dose” value ([7]; well (non-cancer) adult and child recipients) was 25 to 50 µg and the “Antibody levels augmented compared to immunization with Adacel alone” value [4, 8] was 10 fold. The “changes in blood chemistry or hematology results” value [5, 9] was “No changes”, the “weight loss (body weight)” value [5] was 8-9% and the “liver histopathology (hepatocellular cytoplasmic vacuolization)” value [5, 10] was “Mild vacuolar changes”. It also gave a degradation [6] of 20%.
